Where a SMILES comes first, the peptide text is derived from it. Bridges are numbered along the chain shown (N, C = ends). [ ]: non-standard residue; d: D form. The star is where a group is joined. ξ: configuration not given here. Phe(3-CF3) = N[C@@H](Cc1cccc(C(F)(F)F)c1)C(=O)O; Ala(morpholin-4-yl) = N[C@@H](CN1CCOCC1)C(=O)O; Phe(4-COOH) = N[C@@H](Cc1ccc(C(=O)O)cc1)C(=O)O; Bip = N[C@@H](Cc1ccc(-c2ccccc2)cc1)C(=O)O; Phe(3-Me) = Cc1cccc(C[C@H](N)C(=O)O)c1; 3Pal = N[C@@H](Cc1cccnc1)C(=O)O; 4Pal = N[C@@H](Cc1ccncc1)C(=O)O; Cha = N[C@@H](CC1CCCCC1)C(=O)O; Cit = NC(=O)NCCC[C@H](N)C(=O)O; Ile(3ξ) = CCC(C)[C@H](N)C(=O)O; Thr(3ξ) = CC(O)[C@H](N)C(=O)O; Carboxymethyl = O=C(O)C*; Orn = NCCC[C@H](N)C(=O)O; Dab = NCC[C@H](N)C(=O)O; Abu = CC[C@H](N)C(=O)O; Dap = NC[C@H](N)C(=O)O; ξA = CC(N)C(=O)O; Sar = CNCC(=O)O
Each compound was assayed against T1, human PD-1 / PD-L1-Ig binding on Jurkat cell line over-expressing human PD-1 (Jurkat-PD-1) (Homo sapiens, UniProt Q15116) (assay: Jurkat-PD-1 Cell Binding High-Content Screening Assay (CBA)). Conditions: Jurkat HPD1_PDL1 IC50, Jurkat-PD-1 cells, PE-labeled PD-L1-Ig 20 nM final.
T1 construct: expressed in transfected cells; host or cells: Jurkat
Type: cell-based
How it was run: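 Jurkat cells over-expressing human PD-1, in DMEM/10% FCS, pre-incubated with compound 2 h at 37° C. PE-labeled human PD-L1-Ig (20 nM final) added for 1 h; cells fixed in paraformaldehyde with Hoechst 33342 nuclear stain, washed, and bound fluorescence quantified by high-content imaging.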

T1 sequence (Q15116 25-288): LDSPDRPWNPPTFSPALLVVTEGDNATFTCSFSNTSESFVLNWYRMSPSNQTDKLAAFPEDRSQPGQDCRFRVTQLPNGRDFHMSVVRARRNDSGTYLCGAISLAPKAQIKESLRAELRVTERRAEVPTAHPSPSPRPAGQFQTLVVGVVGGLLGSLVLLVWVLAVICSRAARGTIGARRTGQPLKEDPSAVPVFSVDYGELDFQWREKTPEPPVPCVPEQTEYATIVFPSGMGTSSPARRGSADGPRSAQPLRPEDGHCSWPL

SMILES	IC50 [nM]
CC[C@H](C)[C@@H]1NC(=O)[C@H](Cc2ccc(-c3ccccc3)cc2)NC(=O)[C@H](C(C)C)NC(=O)[C@H](Cc2cccc(OC)c2)NC(=O)[C@H](CC(=O)O)NC(=O)[C@H](Cc2ccc(OCC(=O)O)cc2)NC(=O)[C@H](Cc2ccncc2)NC(=O)CSC[C@@H](C(=O)N[C@@H](C)C(N)=O)NC(=O)[C@H]([C@@H](C)O)NC(=O)[C@H](C(C)C)NC(=O)[C@H](CC(C)C)NC(=O)[C@H](CCN)NC(=O)[C@@H](CC(C)C)NC(=O)[C@H](CCCN)NC1=O [Compound 1187]	10.7

Same assay, conditions: Jurkat-PD-1 cells, PE-labeled PD-L1-Ig 20 nM final; read-out: Jurkat HPD1_PDL1 IC50

IC50 [nM]	SMILES
5.5	CC[C@@H]1NC(=O)[C@H](Cc2c[nH]c3ccccc23)NC(=O)[C@H](CC(=O)O)NC(=O)[C@H](Cc2ccc(OCC(=O)O)cc2)NC(=O)[C@H](CN)NC(=O)CSC[C@@H](C(=O)N[C@@H](C)C(N)=O)NC(=O)[C@H]([C@@H](C)O)NC(=O)[C@H](C(C)C)NC(=O)[C@H](CC2CCCCC2)NC(=O)[C@H](CCN)NC(=O)[C@@H](CC(C)C)NC(=O)[C@H](CCCN)NC(=O)[C@H](CCCNC(N)=O)NC(=O)[C@H](Cc2ccc(-c3ccccc3)cc2)NC1=O [Compound 1356] ({CH2CO}-[Dap]Y(Carboxymethyl)DW[Abu][Bip][Cit][Orn][dL][Dab][Cha]VTCA-NH2; thioether N-14)
12.1	Cc1ccccc1C[C@@H]1NC(=O)[C@H](CC(=O)O)NC(=O)[C@H](Cc2ccc(OCC(=O)O)cc2)NC(=O)[C@H](CN)NC(=O)CSC[C@@H](C(=O)N[C@@H](C)C(N)=O)NC(=O)[C@H]([C@@H](C)O)NC(=O)[C@H](C(C)C)NC(=O)[C@H](CC2CCCCC2)NC(=O)[C@H](CCN)NC(=O)[C@@H](CC(C)C)NC(=O)[C@H](CCCN)NC(=O)[C@H](CCC(=O)O)NC(=O)[C@H](Cc2ccc(-c3ccccc3)cc2)NC(=O)[C@H](C(C)C)NC1=O [Compound 2151]
9.6	CC(C)C[C@H]1NC(=O)[C@H](CCCN)NC(=O)[C@H](C(C)C)NC(=O)[C@H](Cc2ccc(-c3ccccc3)cc2)NC(=O)[C@H](C(C)C)NC(=O)[C@H](Cc2c[nH]c3ccccc23)NC(=O)[C@H](CC(=O)O)NC(=O)[C@H](Cc2ccncc2)NC(=O)[C@H](CN)NC(=O)CSC[C@@H](C(=O)N[C@@H](C)C(N)=O)NC(=O)[C@H]([C@@H](C)O)NC(=O)[C@H](C(C)C)NC(=O)[C@H](CC2CCCCC2)NC(=O)[C@H](Cc2cnc[nH]2)NC1=O [Compound 1611]
5.4	CC(C)C[C@H]1NC(=O)[C@H](CCCN)NC(=O)[C@H](CCC(=O)O)NC(=O)[C@H](Cc2ccc(-c3ccccc3)cc2)NC(=O)[C@H](C(C)C)NC(=O)[C@H](Cc2c[nH]c3ccccc23)NC(=O)[C@H](CC(=O)O)NC(=O)[C@H](Cc2cccnc2)NC(=O)[C@H](CC(N)=O)NC(=O)CSC[C@@H](C(=O)N[C@@H](C)C(N)=O)NC(=O)[C@H]([C@@H](C)O)NC(=O)[C@H](C(C)C)NC(=O)[C@H](CC2CCCCC2)NC(=O)[C@H](CCN)NC1=O [Compound 2170] ({CH2CO}-N[3Pal]DWV[Bip]E[Orn][dL][Dab][Cha]VTCA-NH2; thioether N-14)
21.4	CC(C)C[C@@H]1NC(=O)[C@H](Cc2c[nH]c3ccccc23)NC(=O)[C@H](CC(=O)O)NC(=O)[C@H](Cc2ccncc2)NC(=O)[C@H](Cc2ccc(OCC(=O)O)cc2)NC(=O)CSC[C@@H](C(=O)NCC(N)=O)NC(=O)[C@H](CO)NC(=O)[C@H](C(C)C)NC(=O)[C@H](CC2CCCCC2)NC(=O)[C@H](CC(N)=O)NC(=O)[C@@H](CC(C)C)NC(=O)[C@H](CN)NC(=O)[C@H](C(C)C)NC(=O)[C@H](Cc2ccc(-c3ccccc3)cc2)NC1=O [Compound 1396] ({CH2CO}-Y(Carboxymethyl)[4Pal]DWL[Bip]V[Dap][dL]N[Cha]VSCG-NH2; thioether N-14)
14.8	CC[C@H](C)[C@@H]1NC(=O)[C@H](Cc2ccc(-c3ccccc3)cc2)NC(=O)[C@H](C(C)C)NC(=O)[C@H](Cc2c[nH]c3ccccc23)NC(=O)[C@H](CC(=O)O)NC(=O)[C@H](Cc2ccc(O)cc2)NC(=O)[C@H](CC(N)=O)NC(=O)CSC[C@@H](C(=O)NCC(N)=O)NC(=O)[C@H](CO)NC(=O)[C@H](C(C)C)NC(=O)[C@H](CC(C)C)NC(=O)[C@H](CCN)NC(=O)[C@@H](CC(C)C)NC(=O)[C@H](CCN)NC1=O [Compound 1123] ({CH2CO}-NYDWV[Bip]I[Dab][dL][Dab]LVSCG-NH2; thioether N-14)
10	Cc1cccc(C[C@@H]2NC(=O)[C@H](CC(=O)O)NC(=O)[C@H](Cc3ccc(OCC(=O)O)cc3)NC(=O)[C@H](Cc3ccccc3)NC(=O)CSC[C@@H](C(=O)N[C@@H](C)C(N)=O)NC(=O)[C@H](C(C)O)NC(=O)[C@H](C(C)C)NC(=O)[C@H](CC3CCCCC3)NC(=O)[C@H](CN)NC(=O)[C@@H](CC(C)C)NC(=O)[C@H](CCCN)NC(=O)[C@H](CCCNC(N)=O)NC(=O)[C@H](Cc3ccc(-c4ccccc4)cc3)NC(=O)[C@H](C(C)C)NC2=O)c1 (stereo partly drawn) [Compound 2500] ({CH2CO}-FY(Carboxymethyl)D[Phe(3-Me)]V[Bip][Cit][Orn][dL][Dap][Cha]V[Thr(3ξ)]CA-NH2; thioether N-14)
43.6	CC(C)C[C@@H]1NC(=O)[C@H](Cc2c[nH]c3ccccc23)NC(=O)[C@H](CC(=O)O)NC(=O)[C@H](Cc2ccc(O)cc2)NC(=O)[C@H](Cc2ccccc2)NC(=O)CSC[C@@H](C(=O)N[C@@H](C)C(N)=O)NC(=O)[C@H](CO)NC(=O)[C@H](C(C)C)NC(=O)[C@H](CC(C)C)NC(=O)[C@H](CCN)NC(=O)[C@@H](C)NC(=O)[C@H](CCN)NC(=O)[C@H](C(C)C)NC(=O)[C@H](Cc2ccc(-c3ccccc3)cc2)NC1=O [Compound 1104] ({CH2CO}-FYDWL[Bip]V[Dab][dA][Dab]LVSCA-NH2; thioether N-14)
17.4	CC(C)C[C@@H]1NC(=O)[C@H](CCN)NC(=O)[C@@H](CC(C)C)NC(=O)[C@H](CCCN)NC(=O)[C@H](C(C)C)NC(=O)[C@H](Cc2ccc(-c3ccccc3)cc2)NC(=O)[C@H](C(C)C)NC(=O)[C@H](Cc2c[nH]c3ccccc23)NC(=O)[C@H](CC(=O)O)NC(=O)[C@H](Cc2ccncc2)NC(=O)[C@H](CN)NC(=O)CSC[C@@H](C(=O)NC(C)C(N)=O)NC(=O)[C@H]([C@@H](C)O)NC(=O)[C@H](C(C)C)NC1=O (stereo partly drawn) [Compound 1236] ({CH2CO}-[Dap][4Pal]DWV[Bip]V[Orn][dL][Dab]LVTC[ξA]-NH2; thioether N-14)
232	CC(C)C[C@H]1NC(=O)[C@H](CCCN)NC(=O)[C@H](CCCNC(N)=O)NC(=O)[C@H](Cc2ccc(-c3ccccc3)cc2)NC(=O)[C@H](C(C)C)NC(=O)[C@H](Cc2c[nH]c3ccccc23)NC(=O)[C@H](CC(=O)O)NC(=O)[C@H](CCC(=O)O)NC(=O)[C@H](CN)NC(=O)CSC[C@@H](C(=O)N[C@@H](C)C(N)=O)NC(=O)[C@H]([C@@H](C)O)NC(=O)[C@H](C(C)C)NC(=O)[C@H](CC2CCCCC2)NC(=O)[C@H](CCN)NC1=O [Compound 2121] ({CH2CO}-[Dap]EDWV[Bip][Cit][Orn][dL][Dab][Cha]VTCA-NH2; thioether N-14)
2.8	CC(C)C[C@H]1NC(=O)[C@H](CCCN)NC(=O)[C@H](Cc2ccc(C(=O)O)cc2)NC(=O)[C@H](Cc2ccc(-c3ccccc3)cc2)NC(=O)[C@H](Cc2ccc(C(=O)O)cc2)NC(=O)[C@H](Cc2cccc(C(F)(F)F)c2)NC(=O)[C@H](CC(=O)O)NC(=O)[C@H](Cc2ccc(C(=O)O)cc2)NC(=O)[C@H](CN2CCOCC2)NC(=O)CSC[C@@H](C(=O)N[C@@H](CCN)C(N)=O)NC(=O)[C@H](CCC(=O)O)NC(=O)[C@H](C(C)C)NC(=O)[C@H](CC2CCCCC2)NC(=O)[C@H](CCN)NC1=O [Example 2712] ({CH2CO}-[Ala(morpholin-4-yl)][Phe(4-COOH)]D[Phe(3-CF3)][Phe(4-COOH)][Bip][Phe(4-COOH)][Orn][dL][Dab][Cha]VEC[Dab]-NH2; thioether N-14)
5	Cc1cccc(C[C@@H]2NC(=O)[C@H](CC(=O)O)NC(=O)[C@H](Cc3ccc(OCC(=O)O)cc3)NC(=O)[C@H](CN)NC(=O)CSC[C@@H](C(=O)N[C@@H](C)C(=O)O)NC(=O)[C@H]([C@@H](C)O)NC(=O)[C@H](C(C)C)NC(=O)[C@H](CC3CCCCC3)NC(=O)[C@H](CCN)NC(=O)[C@@H](CC(C)C)NC(=O)[C@H](CCCN)NC(=O)[C@H](CCCNC(N)=O)NC(=O)[C@H](Cc3ccc(-c4ccccc4)cc3)NC(=O)[C@H](C(C)C)NC2=O)c1 [Compound 1300]
19.9	Cc1cccc(C[C@@H]2NC(=O)[C@H](CC(=O)O)NC(=O)[C@H](Cc3ccc(C(=O)O)cc3)NC(=O)[C@H](CN)NC(=O)CSC[C@@H](C(=O)N[C@@H](CCN)C(N)=O)NC(=O)[C@H]([C@@H](C)O)NC(=O)[C@H](C(C)C)NC(=O)[C@H](CC(C)C)NC(=O)[C@H](CCN)NC(=O)[C@@H](CC(C)C)NC(=O)[C@H](CCCN)NC(=O)[C@H](C(C)C)NC(=O)[C@H](Cc3ccc(-c4ccccc4)cc3)NC(=O)[C@H](C(C)C)NC2=O)c1 [Compound 2008] ({CH2CO}-[Dap][Phe(4-COOH)]D[Phe(3-Me)]V[Bip]V[Orn][dL][Dab]LVTC[Dab]-NH2; thioether N-14)

Same assay, conditions: read-out: Jurkat HPD1_PDL1 IC50; Jurkat-PD-1 cells, PE-labeled PD-L1-Ig 20 nM final

SMILES	IC50 [nM]
CCC(C)[C@@H]1NC(=O)[C@H](CC2CCCCC2)NC(=O)[C@H](CCN)NC(=O)[C@@H](CC(C)C)NC(=O)[C@H](CCCN)NC(=O)[C@H](C(C)CC)NC(=O)[C@H](Cc2ccc(-c3ccccc3)cc2)NC(=O)[C@H](C(C)CC)NC(=O)[C@H](Cc2c[nH]c3ccccc23)NC(=O)[C@H](CC(=O)O)NC(=O)[C@H](Cc2ccc(OCC(=O)O)cc2)NC(=O)[C@H](C(C)O)NC(=O)CSC[C@@H](C(=O)N(C)CC(N)=O)NC(=O)[C@H](CO)NC1=O (stereo partly drawn) [Compound 2584] ({CH2CO}-[Thr(3ξ)]Y(Carboxymethyl)DW[Ile(3ξ)][Bip][Ile(3ξ)][Orn][dL][Dab][Cha][Ile(3ξ)]SC[Sar]-NH2; thioether N-14)	97

Reference: patent US20250163104A1, “MACROCYCLIC IMMUNOMODULATORS” (priority 2021, published 2025)
